In brackets after ≈: the same amount, converted by molar mass. Where a SMILES comes first, the peptide text is derived from it. [ ]: non-standard residue; d: D form. Gly(N(CH2)2(3-indolyl)) = O=C(O)CNCCc1c[nH]c2ccccc12; Gly(N-CH2CH2-imidazol-4-yl) = O=C(O)CNCCc1c[nH]cn1; Nspe = C[C@H](NCC(=O)O)c1ccccc1; Nlys = NCCCCNCC(=O)O

Series [1] has as its system E. coli ATCC25922. The note with it: for antimicrobial activity against E. coli (in words): compared to Peptoid 1; for antimicrobial activity (in words): E. coli and S. aureus, compared to Peptoid 1, parent peptoid or TFA salt as stated. On the procedure: To measure the antimicrobial activity of the peptoids synthesized in Example 1, an E. coli ATCC25922 strain as gram-negative bacteria and an S. aureus KCTC25923 strain as gram-positive bacteris, were treated with the peptoids, followed by measuring the minimum inhibitory concentration (MIC). Peptoids 1 and 2 are antimicrobial peptoids known in the art, and used as controls for comparing antimicrobial activity with a novel peptoid.
Specifically, the S. aureus KCTC25923 or E. coli ATCC25922 strain was inoculated into a Mueller Hinton Broth (MHB2) liquid medium in which cations had been adjusted in the medium, cultured at 37° C. for 18 hours, subcultured, and then incubated for 4 hours. Afterward, for each bacterial strain, an optical density (OD, 0.001) was adjusted so that the bacterial count became 2×10^5 to 5×10^5 colony-forming units (CFU) per mL, which was then diluted with a MHB2 liquid medium containing 0.02% bovine serum albumin and 0.001% acetic acid, and dispensed at 100 μL into a 96-well microplate. Using sterile water, a peptoid stock 40 times stronger than a concentration to be tested was subjected to two-fold serial dilution and assessed at six different concentrations, and the maximum value of the peptoid concentrations was 25 μM. Subsequently, the plate was incubated at 37° C. for 24 hours. Afterward, optical density (OD) values at 600 nm were measured using a microplate reader (Bio-Rad).
Each MIC value was determined as the average value of a value obtained through three independent experiments.
Referring to Table 22, to measure the antimicrobial activity of the peptoids synthesized in Example 3, an MIC was measured by treating gram-negative bacteria, that is, the E. coli ATCC25922 strain, and gram-positive bacteria, that is, the S. aureus ATCC25923 strain, with the peptoids. Here, Peptoid 1 is a conventionally known antimicrobial peptoid, and Omiganan is a derivative of indolicidin, which is an antimicrobial peptide, under clinical development, and was used as a control for comparing antimicrobial activity with the novel peptoid.

The subject of series [2] is red blood cells. In words: Hemolysis assay. Format: cell-based, Sprague-Dawley mouse. On the procedure:
To confirm cytotoxicity by the hemolytic activity of each peptoid synthesized in Example 1, hemolysis analysis was performed. The used blood was collected from a 13-week-old male Sprague-Dawley […] in a tube containing 158 UPS sodium heparin for preventing coagulation, and centrifuged at 4° C. for 10 minutes at 1,000 rpm. Afterward, the plasma was carefully removed, red blood cells were washed with phosphate-buffered saline (PBS: a mixed solution of 35 mM phosphate-buffered solution/150 mM NaCl, pH 7.4) three times and centrifuged at 1,000 rpm for 10 minutes. A 10% (v/v) red blood cell solution diluted in PBS was dispensed at 150 μL into a 96-well plate (microtiter plate), a peptoid solution was added at 50 μL, and 1% Triton X-100 was added. Afterward, the red blood cells were incubated at 37° C. for 1 hour, and the incubated 96-well plate was centrifuged at 1,000 rpm for 15 minutes. A supernatant was obtained and transferred to a new 96-well plate at 150 μL, and absorbance was measured using a spectrophotometer at 540 nm. Percent hemolysis may be calculated by the following Equation 1, and the corresponding results are shown in Tables 11 to 13. % Hemolysis=(A−C)/(B−C)×100 [Equation 1] In Equation 1, A is the absorbance of the peptoid solution at 540 nm, B is the absorbance of the 0.1% Triton X-100 at 540 nm, and C is the absorbance of the PBS solution at 540 nm.

Consider `C[C@@H](c1ccccc1)N(CC(=O)N(CCCCN)CC(=O)N(CC(=O)N(CC(=O)N(CCCCN)CC(=O)N(CC(=O)N(CC(=O)N(CCCCN)CC(=O)N(CC(=O)N(CC(=O)N(CCc1c[nH]c2ccccc12)CC(N)=O)[C@@H](C)c1ccccc1)[C@@H](C)c1ccccc1)[C@@H](C)c1ccccc1)[C@@H](C)c1ccccc1)[C@@H](C)c1ccccc1)[C@@H](C)c1ccccc1)C(=O)CN(C(=O)CN(CCCCN)C(=O)CNCCc1c[nH]c2ccccc12)[C@@H](C)c1ccccc1` [Peptoid 5, H-NhTrp-NLys-Nspe-Nspe-NLys-Nspe-Nspe-NLys-Nspe-Nspe-NLys-Nspe-Nspe-NhTrp-NH2] (H-[Gly(N(CH2)2(3-indolyl))][Nlys][Nspe][Nspe][Nlys][Nspe][Nspe][Nlys][Nspe][Nspe][Nlys][Nspe][Nspe][Gly(N(CH2)2(3-indolyl))]-NH2), for which the “antimicrobial activity against E. coli (in words)” value in series [1] is “lost antimicrobial activities against E. coli”.

With `C[C@@H](c1ccccc1)N(CC(N)=O)C(=O)CN(C(=O)CN(CCCCN)C(=O)CN(C(=O)CN(C(=O)CN(CCCCN)C(=O)CN(C(=O)CN(C(=O)CN(CCCCN)C(=O)CN(C(=O)CN(C(=O)CN(CCCCN)C(=O)CN(CCc1c[nH]c2ccccc12)C(=O)CNCCc1c[nH]c2ccccc12)[C@@H](C)c1ccccc1)[C@@H](C)c1ccccc1)[C@@H](C)c1ccccc1)[C@@H](C)c1ccccc1)[C@@H](C)c1ccccc1)[C@@H](C)c1ccccc1)[C@@H](C)c1ccccc1` [Peptoid 6, H-NhTrp-NhTrp-NLys-Nspe-Nspe-NLys-Nspe-Nspe-NLys-Nspe-Nspe-NLys-Nspe-Nspe-NH2], the “antimicrobial activity against E. coli (in words)” value in series [1] is reported as “lost antimicrobial activities against E. coli”.

The term HC50 denotes the concentration giving 50% haemolysis. As to `C[C@@H](c1ccccc1)N(CC(=O)N(CCCCN)CC(=O)N(CC(=O)N(CC(=O)N(CCCCN)CC(=O)N(CCc1c[nH]c2ccccc12)CC(=O)N(CCc1c[nH]c2ccccc12)CC(=O)N(CCCCN)CC(=O)N(CCc1c[nH]c2ccccc12)CC(=O)N(CCc1c[nH]c2ccccc12)CC(N)=O)[C@@H](C)c1ccccc1)[C@@H](C)c1ccccc1)C(=O)CN(C(=O)CNCCCCN)[C@@H](C)c1ccccc1` [Peptoid 19] (H-[Nlys][Nspe][Nspe][Nlys][Nspe][Nspe][Nlys][Gly(N(CH2)2(3-indolyl))][Gly(N(CH2)2(3-indolyl))][Nlys][Gly(N(CH2)2(3-indolyl))][Gly(N(CH2)2(3-indolyl))]-NH2), in series [2], the “Hmax (100 μM)” value came to 101.5 ± 1.3%. The HC10 in series [2] (Tables 11-13, concentration that induces hemolysis in 10% red blood cells) came out at 3.8 µM. Besides, the HC50 in series [2] (Tables 11-13, concentration that induces hemolysis in 50% red blood cells) was 12.5 µM. Also, the “MIC E. coli ATCC25922” value in series [1] (Tables 11-13, 24 hours at 37° C., maximum concentration 25 μM) was found to be 12.5 µM (≈ 24.7 µg/mL).

For `C[C@@H](c1ccccc1)N(CC(N)=O)C(=O)CN(CCCCN)C(=O)CN(CCCCN)C(=O)CN(C(=O)CN(C(=O)CN(CCCCN)C(=O)CN(C(=O)CN(C(=O)CN(CCCCN)C(=O)CN(CCc1c[nH]c2ccccc12)C(=O)CN(CCc1c[nH]c2ccccc12)C(=O)CNCCc1c[nH]cn1)[C@@H](C)c1ccccc1)[C@@H](C)c1ccccc1)[C@@H](C)c1ccccc1)[C@@H](C)c1ccccc1` [Peptoid 72, H-NHis-NhTrp-NhTrp-NLys-Nspe-Nspe-NLys-Nspe-Nspe-NLys-NLys-Nspe-NH2] (H-[Gly(N-CH2CH2-imidazol-4-yl)][Gly(N(CH2)2(3-indolyl))][Gly(N(CH2)2(3-indolyl))][Nlys][Nspe][Nspe][Nlys][Nspe][Nspe][Nlys][Nlys][Nspe]-NH2), the “cytotoxicity against red blood cells / hemolysis (in words)” value in series [2] is “improved in toxicity”. In addition, the “antimicrobial activity (in words)” value in series [1] is given as “retained antimicrobial activity”.

Consider `C[C@@H](c1ccccc1)N(CC(N)=O)C(=O)CN(CCCCN)C(=O)CN(CCCCN)C(=O)CN(C(=O)CN(C(=O)CN(CCCCN)C(=O)CN(C(=O)CN(C(=O)CN(CCc1c[nH]cn1)C(=O)CN(CCc1c[nH]c2ccccc12)C(=O)CN(CCc1c[nH]c2ccccc12)C(=O)CNCCCCN)[C@@H](C)c1ccccc1)[C@@H](C)c1ccccc1)[C@@H](C)c1ccccc1)[C@@H](C)c1ccccc1` [Peptoid 73, H-NLys-NhTrp-NhTrp-NHis-Nspe-Nspe-NLys-Nspe-Nspe-NLys-NLys-Nspe-NH2] (H-[Nlys][Gly(N(CH2)2(3-indolyl))][Gly(N(CH2)2(3-indolyl))][Gly(N-CH2CH2-imidazol-4-yl)][Nspe][Nspe][Nlys][Nspe][Nspe][Nlys][Nlys][Nspe]-NH2), for which the “cytotoxicity against red blood cells / hemolysis (in words)” value in series [2] was “improved in toxicity”. In addition, in series [1], the “antimicrobial activity (in words)” value is on record as “retained antimicrobial activity”.

For `C[C@@H](c1ccccc1)N(CC(N)=O)C(=O)CN(CCCCN)C(=O)CN(CCCCN)C(=O)CN(C(=O)CN(C(=O)CN(CCc1c[nH]cn1)C(=O)CN(C(=O)CN(C(=O)CN(CCCCN)C(=O)CN(CCc1c[nH]c2ccccc12)C(=O)CN(CCc1c[nH]c2ccccc12)C(=O)CNCCCCN)[C@@H](C)c1ccccc1)[C@@H](C)c1ccccc1)[C@@H](C)c1ccccc1)[C@@H](C)c1ccccc1` [Peptoid 74, H-NLys-NhTrp-NhTrp-NLys-Nspe-Nspe-NHis-Nspe-Nspe-NLys-NLys-Nspe-NH2] (H-[Nlys][Gly(N(CH2)2(3-indolyl))][Gly(N(CH2)2(3-indolyl))][Nlys][Nspe][Nspe][Gly(N-CH2CH2-imidazol-4-yl)][Nspe][Nspe][Nlys][Nlys][Nspe]-NH2), the “cytotoxicity against red blood cells / hemolysis (in words)” value in series [2] is “improved in toxicity”. For the same molecule, in series [1], the “antimicrobial activity (in words)” value is recorded as “retained antimicrobial activity”.

Regarding `C[C@@H](c1ccccc1)N(CC(N)=O)C(=O)CN(CCc1c[nH]cn1)C(=O)CN(CCCCN)C(=O)CN(C(=O)CN(C(=O)CN(CCCCN)C(=O)CN(C(=O)CN(C(=O)CN(CCCCN)C(=O)CN(CCc1c[nH]c2ccccc12)C(=O)CN(CCc1c[nH]c2ccccc12)C(=O)CNCCCCN)[C@@H](C)c1ccccc1)[C@@H](C)c1ccccc1)[C@@H](C)c1ccccc1)[C@@H](C)c1ccccc1` [Peptoid 76, H-NLys-NhTrp-NhTrp-NLys-Nspe-Nspe-NLys-Nspe-Nspe-NLys-NHis-Nspe-NH2] (H-[Nlys][Gly(N(CH2)2(3-indolyl))][Gly(N(CH2)2(3-indolyl))][Nlys][Nspe][Nspe][Nlys][Nspe][Nspe][Nlys][Gly(N-CH2CH2-imidazol-4-yl)][Nspe]-NH2), in series [2], the “cytotoxicity against red blood cells / hemolysis (in words)” value is “improved in toxicity”. The “antimicrobial activity (in words)” value in series [1] was “retained antimicrobial activity”.

Turning to `C[C@@H](c1ccccc1)N(CC(=O)N(CCc1c[nH]cn1)CC(=O)N(CCc1c[nH]c2ccccc12)CC(=O)N(CCc1c[nH]c2ccccc12)CC(N)=O)C(=O)CN(CCCCN)C(=O)CN(CCCCN)C(=O)CN(C(=O)CN(C(=O)CN(CCCCN)C(=O)CN(C(=O)CN(C(=O)CNCCCCN)[C@@H](C)c1ccccc1)[C@@H](C)c1ccccc1)[C@@H](C)c1ccccc1)[C@@H](C)c1ccccc1` [Peptoid 77, H-NLys-Nspe-Nspe-NLys-Nspe-Nspe-NLys-NLys-Nspe-NHis-NhTrp-NhTrp-NH2] (H-[Nlys][Nspe][Nspe][Nlys][Nspe][Nspe][Nlys][Nlys][Nspe][Gly(N-CH2CH2-imidazol-4-yl)][Gly(N(CH2)2(3-indolyl))][Gly(N(CH2)2(3-indolyl))]-NH2), in series [2], the “cytotoxicity against red blood cells / hemolysis (in words)” value was “improved toxicity”. In series [1], the “antimicrobial activity (in words)” value is listed as “reduced antimicrobial activity”.

As for `C[C@@H](c1ccccc1)N(CC(=O)N(CCCCN)CC(=O)N(CCc1c[nH]c2ccccc12)CC(=O)N(CCc1c[nH]c2ccccc12)CC(N)=O)C(=O)CN(CCc1c[nH]cn1)C(=O)CN(CCCCN)C(=O)CN(C(=O)CN(C(=O)CN(CCCCN)C(=O)CN(C(=O)CN(C(=O)CNCCCCN)[C@@H](C)c1ccccc1)[C@@H](C)c1ccccc1)[C@@H](C)c1ccccc1)[C@@H](C)c1ccccc1` [Peptoid 78, H-NLys-Nspe-Nspe-NLys-Nspe-Nspe-NLys-NHis-Nspe-NLys-NhTrp-NhTrp-NH2] (H-[Nlys][Nspe][Nspe][Nlys][Nspe][Nspe][Nlys][Gly(N-CH2CH2-imidazol-4-yl)][Nspe][Nlys][Gly(N(CH2)2(3-indolyl))][Gly(N(CH2)2(3-indolyl))]-NH2), the “cytotoxicity against red blood cells / hemolysis (in words)” value in series [2] is “improved in toxicity”. Further, the “antimicrobial activity (in words)” value in series [1] was “retained antimicrobial activity”.

The values above are taken from patent US20240226228A1, “ANTIMICROBIAL PEPTOID HAVING IMPROVED SELECTIVITY AND ANTIMICROBIAL COMPOSITION COMPRISING SAME” (priority 2021, published 2024).
